Data as given in patent publication US20250041245A1, “ENDOXIFEN FOR TREATMENT OF CANCERS” (Atossa Therapeutics, Inc., priority 2021, published 2025).
“And” between values parts separate entries of the source, which are not always exact repeats. Identical values can stand only once. “Also recorded” adds a separate entry of the source.

Experiments:
Assay type in all cases: cell-based, human
[1] = system: patient-derived tumor organoids (PDTOs), rectal cancer; assay: Endoxifen screen in PDTOs: rectal cancer; parameters: key to Personalization Category: Personalization categories range from High, Good, Moderate, Low, to None; Personalization categories range from High, Good, Moderate, Low, to None; Personalization categories range from High, Good, Moderate, Low, to None; Personalization categories range from High, Good, Moderate, Low, to None; Personalization categories range from High, Good, Moderate, Low, to None; key to Sensitivity Category: Sensitivity categories range from High, Good, Moderate, Low, to None; Sensitivity categories range from High, Good, Moderate, Low, to None; Sensitivity categories range from High, Good, Moderate, Low, to None; Sensitivity categories range from High, Good, Moderate, Low, to None; Sensitivity categories range from High, Good, Moderate, Low, to None; AUC: unit not given beside the values
Description: (§1) This example describes screening endoxifen in patient-derived tumor organoids. Endoxifen was tested as a single agent on tumor organoids derived from patients diagnosed with various cancer types using a personalized cancer treatment screening assay (PARIS© Test, SEngine Precision Medicine). The screen utilized patient-derived tumor organoids (PDTOs) along with high-throughput drug screening and machine learning-guided data analysis to quantify the efficacy of endoxifen against samples derived from individual patients diagnosed with various cancer types. PDTOs are self-organizing, three-dimensional organoid structures that recapitulate structural, functional, and genomic aspects of in vivo organs. The PDTOs were grown in culture from patient tumor biopsy samples.
(§2) Fresh patient biopsy samples received following surgery were cleaned and purified. Immune cells (e.g., lymphocytes, blood cells), cancer-associated fibroblasts, and other non-tumor cells were removed to establish pure PDTOs for endoxifen testing. The tumor organoids were grown and expanded by supplying organ- and patient-specific growth factors and nutrients. The PDTOs were treated with increasing concentrations of endoxifen ranging from about 30 nM to about 10 μM, and the drug response was measured using a luminescence readout. A lower luminescence was indicative of a stronger drug response.
(§3) The results were analyzed using a “SEngine Precision Medicine” (SPM) scoring system to assess the sensitivity and personalization of each tumor organoid to endoxifen. The SPM score correlates with clinical outcomes, such that a higher SPM score for a specific PDTO-drug combination predicts a more favorable clinical outcome following treatment of the corresponding patient with the tested drug.
(§4) This example describes testing endoxifen efficacy against 17 distinct cancer types in patient-derived tumor organoids (PDTOs). Screening of PDTOs was performed as described in EXAMPLE 1. For each PDTO sample, the drug response was measured using a luminescent readout over a range of endoxifen concentrations. The drug response was evaluated based on the area under the fitted dose response curve (AUC) and the SPM scoring system. AUC values were normalized for each PDTO. Briefly, data points at each drug concentration were first normalized to a negative control, then a dose response drug curve was approximated using a four-parameter logistic model fitted to the normalized data points. The area under the curve was calculated from the normalized curve. Normalization allowed for comparison of AUC values between patient samples. The SPM scores were based on machine learning models that incorporate values for how well the drug kill patient cells (sensitivity metric), the relative drug responses of a patient to all other patients in a sample database (personalization metric), and knowledge of clinical outcomes for patients that had been evaluated with the personalized cancer screening assay (PARIS® Test, SEngine Precision Medicine).
(§5) The SPM scoring system evaluated whether a PDTO was unresponsive or responsive to endoxifen and the degree of drug response for PDTOs that were responsive to endoxifen. […] The sensitivity category was determined from the sensitivity metric and is a measure of overall cell death of a patient's cells in response to endoxifen at six concentrations. […]

[2] = system: patient-derived tumor organoids (PDTOs), neuroblastoma; assay: Endoxifen screen in PDTOs: neuroblastoma; parameters: key to Personalization Category: Personalization categories range from High, Good, Moderate, Low, to None; Personalization categories range from High, Good, Moderate, Low, to None; Personalization categories range from High, Good, Moderate, Low, to None; Personalization categories range from High, Good, Moderate, Low, to None; Personalization categories range from High, Good, Moderate, Low, to None; key to Sensitivity Category: Sensitivity categories range from High, Good, Moderate, Low, to None; Sensitivity categories range from High, Good, Moderate, Low, to None; Sensitivity categories range from High, Good, Moderate, Low, to None; Sensitivity categories range from High, Good, Moderate, Low, to None; Sensitivity categories range from High, Good, Moderate, Low, to None; AUC: unit not given beside the values; conditions: each line one patient sample; for IC50: four-parameter logistic fit
Description: as §1, §2, §3, §4
The SPM scoring system evaluated whether a PDTO was unresponsive or responsive to endoxifen and the degree of drug response for PDTOs that were responsive to endoxifen. The SPM scoring system generated metrics an SPM score, predictive of clinical outcome, overall drug response (response category), drug sensitivity (sensitivity category), and drug personalization (personalization category). SPM scores ranged from 1-15, corresponding to the following drug response categories: no response (SPM 1-8), low response (SPM 9), moderate response (SPM 10-11), good response (SPM 12-13), and exceptional response (SPM 14-15). […] Moderate to good drug responses (SPM 10-13) may indicate that a drug has clinical relevance, possibly in combination with other drugs. The sensitivity category was determined from the sensitivity metric and is a measure of overall cell death of a patient's cells in response to endoxifen at six concentrations. […]

[3] = system: patient-derived tumor organoids (PDTOs), breast cancer; assay: Endoxifen screen in patient-derived tumor organoids (PARIS Test): breast cancer; parameters: key to Personalization Category: Personalization categories range from High, Good, Moderate, Low, to None; Personalization categories range from High, Good, Moderate, Low, to None; Personalization categories range from High, Good, Moderate, Low, to None; Personalization categories range from High, Good, Moderate, Low, to None; Personalization categories range from High, Good, Moderate, Low, to None; key to Sensitivity Category: Sensitivity categories range from High, Good, Moderate, Low, to None; Sensitivity categories range from High, Good, Moderate, Low, to None; Sensitivity categories range from High, Good, Moderate, Low, to None; Sensitivity categories range from High, Good, Moderate, Low, to None; Sensitivity categories range from High, Good, Moderate, Low, to None; conditions: each line one patient sample
Description: as §1, §2, §3, §4, §5

[4] = normalized area under fitted dose response curve

Structure (SMILES): CC/C(=C(\c1ccc(O)cc1)c1ccc(OCCNC)cc1)c1ccccc1 [Endoxifen, 4-hydroxy-N-desmethyltamoxifen]
- IC50 ([1]; Homo sapiens, Patient 19, four-parameter logistic fit): 3.9 µM
- Personalization Category ([1]; Patient 19): Low
- Sensitivity Category ([1]; Patient 19): Low
- AUC ([1]; Patient 19, normalized area under fitted dose response curve): 0.8614
- SPM Score ([1]; Patient 19, score range 1-15): 9
- IC50 ([2]; Homo sapiens): 5.73 µM
- Personalization Category [2]: Low and Moderate and None
- Response Category [2]: Low (low response (SPM 9)); also recorded: Moderate (moderate response (SPM 10-11)); also recorded: None (no response (SPM 1-8))
- Sensitivity Category [2]: Low and None
- IC50 [2]: 5.87 µM and 7.18 µM
- AUC [2, 4]: 0.8848 and 0.8184 and 0.9511
- SPM Score ([2]; score range 1-15): 9 and 10 and 1
- Response Category [3]: Moderate (moderate response (SPM 10-11)); also recorded: None (no response (SPM 1-8)); also recorded: Low (low response (SPM 9)); also recorded: Good (good response (SPM 12-13)); also recorded: Exceptional (exceptional response (SPM 14-15))
- AUC [3, 4]: 0.8248 and 0.9311 and 0.8639 and 0.6798 and 0.8079 and 0.9835 and 0.8609 and 0.8997 and 0.8847 and 0.9811 and 0.9320 and 0.9911 and 0.9378 and 0.4774 and 0.5912
- Sensitivity Category ([3]; overall cell death at six concentrations): Low and None and Moderate and Good
- Personalization Category ([3]; response relative to other PDTOs): Moderate and None and Low and High and Good
- SPM Score ([3]; score range 1-15): 10 and 1 (6×) and 9 (3×) and 13 (2×) and 11 and 4 and 14
